From patent US20210038579A1, “Treatment Of Patients With Classic Fabry Disease” (Amicus Therapeutics, Inc., priority 2018, published 2021) come the findings set out here.

Molecules are shown by their SMILES. Where a chain is given by its changes, count along the chain named.

Experiment in all cases: HEK assay: α-Gal A activity in HEK-293 cell lysate with migalastat
Holding throughout (assay type): cell-based

Experiment [1] addresses T1, α-Gal A mutant form p.Pro259Arg (c.776 C > G) (Homo sapiens, UniProt P06280, P259R).
T1 construct: expressed in transfected cells; host or cells: HEK-293
T1 sequence (P06280 32-429 P259R): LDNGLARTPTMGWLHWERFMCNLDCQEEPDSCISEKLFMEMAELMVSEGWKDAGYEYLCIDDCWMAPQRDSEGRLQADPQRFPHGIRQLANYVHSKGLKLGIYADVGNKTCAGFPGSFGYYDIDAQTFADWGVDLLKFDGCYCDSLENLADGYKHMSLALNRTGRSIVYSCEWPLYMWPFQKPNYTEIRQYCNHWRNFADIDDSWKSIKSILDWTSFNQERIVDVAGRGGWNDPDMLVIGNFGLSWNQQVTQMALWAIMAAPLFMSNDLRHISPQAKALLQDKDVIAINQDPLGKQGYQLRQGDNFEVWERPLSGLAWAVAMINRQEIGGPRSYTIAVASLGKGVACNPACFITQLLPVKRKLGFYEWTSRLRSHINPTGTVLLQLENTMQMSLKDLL
Summed up:
(§1)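 Mutant α-Gal A forms from cDNA constructs were transiently expressed in HEK-293 cells, then incubated with or without migalastat (17 nM to 1 mM) for 4 to 5 days. Enzyme levels in cell lysates were measured with the fluorogenic substrate 4-MU-α-Gal or by western blot.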

Experiment [2] concerns the target T2, α-Gal A mutant form p.Asp33Gly (c.98 A > G) (Homo sapiens, UniProt P06280, D33G).
T2 construct: expressed in transfected cells; host or cells: HEK-293
T2 sequence (P06280 32-429 D33G): T1 sequence (P06280 32-429 P259R) with D2G, R228P
Summed up:
as §1

The target of experiment [3] is T3, α-Gal A mutant form p.Ile270Thr (c.809 T > C) (Homo sapiens, UniProt P06280, I270T).
T3 construct: expressed in transfected cells; host or cells: HEK-293
T3 sequence (P06280 32-429 I270T): T1 sequence (P06280 32-429 P259R) with R228P, I239T
Summed up:
as §1

The target of experiment [4] is T4, α-Gal A mutant form p.Gly260Ala (c.779 G > C) (Homo sapiens, UniProt P06280, G260A).
T4 construct: expressed in transfected cells; host or cells: HEK-293
T4 sequence (P06280 32-429 G260A): T1 sequence (P06280 32-429 P259R) with R228P, G229A
Summed up:
as §1

Experiment [5] deals with T5, α-Gal A mutant form p.Arg356Trp (c.1066 C > T) (Homo sapiens, UniProt P06280, R356W).
T5 construct: expressed in transfected cells; host or cells: HEK-293
T5 sequence (P06280 32-429 R356W): T1 sequence (P06280 32-429 P259R) with R228P, R325W
An outline of the steps:
as §1

Setting [6] is: +10 μM migalastat, HEK-293 cell lysate, mean ± SEM, n = 20.
The mark [7] stands for this setting: HEK293, 10 μM migalastat minus baseline, read-out: Absolute increase at 10 μM (% WT).

Regarding `OC[C@H]1NC[C@H](O)[C@@H](O)[C@H]1O` [migalastat], the “α-Gal A activity at 10 μM (fold over baseline)” value in experiment [1] (10 μM migalastat) stood at 2.64 fold over baseline; in experiment [2] (10 μM migalastat), 2.42 fold over baseline; in experiment [3] (10 μM migalastat), 6.73 fold over baseline; in experiment [4] (10 μM migalastat), 4.84 fold over baseline; in experiment [5] (10 μM migalastat), 4.42 fold over baseline. Also, the “+Migalastat α-Gal A activity” value in experiment [1] (setting [6]) is 17645 ± 515 nmol/mg/h; in experiment [2] (setting [6]), 24033 ± 865 nmol/mg/h; in experiment [3] (setting [6]), 12416 ± 377 nmol/mg/h; in experiment [4] (setting [6]), 10749 ± 403 nmol/mg/h; in experiment [5] (setting [6]), 15570 ± 830 nmol/mg/h. For the same compound, the “+Migalastat α-Gal A activity % WT” value in experiment [1] (setting [6]) turned out to be 60.3 ± 3.8 % WT; in experiment [2] (setting [6]), 70.6 ± 2.4 % WT; in experiment [3] (setting [6]), 42.8 ± 3.0 % WT; in experiment [4] (setting [6]), 37.4 ± 3.1 % WT; in experiment [5] (setting [6]), 49.1 ± 2.6 % WT. Further, the activation at 10 µM is 37% in experiment [1] (setting [7]); 41.3% in experiment [2] (setting [7]); 36.5% in experiment [3] (setting [7]); 29.9% in experiment [4] (setting [7]); 38.1% in experiment [5] (setting [7]).
